We go through 3 molecules from patent publication EP2930248B1, “METHOD FOR PREDICTING SENSITIVITY OF OSTEOSARCOMA PATIENT TO ANTICANCER AGENT” (National Cancer Center, priority 2014, dated 2015).

What is called IC50 is the concentration that inhibits the measured activity by half. Low readings indicate greater potency, high ones weaker potency.

The subject of assay [1] is 143B. The assay is described as follows: Sensitivity test: cell viability (Cell Counting Kit-8) after anticancer agent, RNA-transfected cells. The following applies: 143B cells, MTX 72 hours, DOX and CDDP 48 hours. Format: cell-based, Human. On the procedure:
(§1) Human osteosarcoma cell lines used were MNNG/HOS, MG63 and 143B. The cells were seeded in a 96-well plate at 3 x 10^3 cells/well. After 24 hours, the medium was replaced with fresh medium and miRNA-100 (SEQ ID NO: 1), miRNA-125b (SEQ ID NO: 2) or negative control (nonsense RNA) (microRNA control, Non-target RNA (S10CM0600; COSMO BIO Co., Ltd)) was introduced to the cells using DharmaFECT transfection reagents (Thermo Scientific). At 24 hours after RNA introduction, the medium was replaced with fresh medium. Specific procedures followed the protocol attached to the gene transfer reagents used.
(§2) Methotrexate (MTX), doxorubicin (DOX) and cisplatin (CDDP) were applied to the cells lines MNNG/HOS, MG63 or 143B to which various RNAs were introduced under following conditions followed by incubation over a certain period. The viability of the cells thereafter was measured with the Cell Counting Kit-8 (Dojindo Laboratories). Specific procedures followed the protocol attached to the kit used.
(§3) Methotrexate (MTX): applied at a final concentration of 0 to 32 µM and incubated for 72 hours.
(§4) Doxorubicin (DOX): applied at a concentration of 0 to 1.3 µM and incubated for 48 hours.
(§5) Cisplatin (CDDP): applied at a final concentration of 0 to 32 µM and incubated for 48 hours.
(§6) From the results of measurement of the viability of the cells, the 50% inhibitory concentration of cell proliferation (IC50) for each anticancer agent was determined.
(In general: Formazan colour is commonly taken as a measure of viable cells.)

Assay [2] deals with MG63. Described as above. Format: cell-based, Human. The following applies: MTX 72 hours, DOX and CDDP 48 hours. On the procedure:
as §1, §2, §3, §4, §5, §6

Assay [3] deals with MNNG/HOS. Described as above. The note with it: MTX 72 hours, DOX and CDDP 48 hours. Format: cell-based, Human. On the procedure: as §1, §2, §3, §4, §5, §6
Assay [4] concerns BAK1. The assay is described as follows: BAK1 protein expression by western blotting in RNA-transfected MNNG/HOS cells. Format: cell-based, human. The note with it: with application of DOX 64 µM, 48 hours, Fig. 8. As to the method: A human osteosarcoma cell line used was MNNG/HOS. The cells were seeded in a 96-well plate at 3 x 10^3 cells/well. After 24 hours, the medium was replaced with fresh medium and miRNA-125b (SEQ ID NO: 2) or negative control (nonsense RNA) (microRNA control, Non-target RNA (S10CM0600; COSMO BIO Co., Ltd)) was introduced to the cells using DharmaFECT transfection reagents (Thermo Scientific). At 24 hours after RNA introduction, the medium was replaced with fresh medium. Specific procedures followed the protocol attached to the gene transfer reagents used.
Doxorubicin (DOX) at a final concentration of 0 µM or 64 µM was applied to MNNG/HOS cells to which various RNAs were introduced as above (1) and then the cells were incubated for 48 hours. To the collected cells was added a urea-containing lysis buffer and the mixture was incubated on ice for 30 minutes to lyse the cells. The lysed cells were centrifuged at 15,000 rpm for 30 minutes at 4°C and the supernatant was collected. The protein concentration in the supernatant was quantified by the Bradford assay (Bio-Rad).
Proteins in the supernatant were separated by electrophoresis using an SDS/polyacrylamide gel and transferred onto a nitrocellulose membrane (Bio-Rad). […] After the membrane was washed with TBS-T, the antigen-antibody complex was detected with the ECL-Prime kit (GE).

Where [5] appears, read: Homo sapiens, 143B, control (negative control nonsense RNA) introduced.
The mark [6] stands for this setting: Homo sapiens, 143B, miR-100 introduced.
The mark [7] stands for this setting: Homo sapiens, 143B, miR-125b introduced.
[8] abbreviates: Homo sapiens, MG-63, MG63 cells, control (negative control nonsense RNA) introduced.
[9] abbreviates: Homo sapiens, MG-63, MG63 cells, miR-100 introduced.
Setting [10] is: Homo sapiens, MG-63, MG63 cells, miR-125b introduced.
Where [11] appears, read: Homo sapiens, HOS, control (negative control nonsense RNA) introduced.
[12] abbreviates: Homo sapiens, HOS, miR-100 introduced.
Where [13] appears, read: Homo sapiens, HOS, miR-125b introduced.
[14] abbreviates: control (negative control nonsense RNA) introduced.

As for `CN(Cc1cnc2nc(N)nc(N)c2n1)c1ccc(C(=O)N[C@@H](CCC(=O)O)C(=O)O)cc1` [MTX, Methotrexate], the IC50 in assay [1] (setting [5]) worked out at 1490 nM; in assay [1] (setting [6]) it was 3210 nM; in assay [1] (setting [7]), 3970 nM; in assay [2] (setting [8]), 3090 nM; in assay [2] (setting [9]), 7180 nM; in assay [2] (setting [10]), 7740 nM. The values for the IC50 in assay [3] (setting [11]), in assay [3] (setting [12]) and in assay [3] (setting [13]) were 1050 nM, 2520 nM and 4030 nM, respectively.
As for `COc1cccc2c1C(=O)c1c(O)c3c(c(O)c1C2=O)C[C@@](O)(C(=O)CO)C[C@@H]3O[C@H]1C[C@H](N)[C@H](O)[C@H](C)O1` [DOX, Doxorubicin], the IC50 in assay [1] (setting [5]) was 64 nM; in assay [1] (setting [6]) it was 77 nM; in assay [1] (setting [7]), 72 nM; in assay [2] (setting [8]) it was 65 nM; in assay [2] (setting [9]), 73 nM; in assay [2] (setting [10]) it was 74 nM. The results for the IC50 in assay [3] (setting [11]), in assay [3] (setting [12]) and in assay [3] (setting [13]) were 180 nM, 250 nM and 370 nM, respectively. Also, the “expression level of BAK1 in NC versus miRNA-125b-introduced cell line” value in assay [4] was “almost the same”.
Consider `[NH2][Pt]([NH2])([Cl])[Cl]` [CDDP, Cisplatin], for which the IC50 in assay [1] (setting [14]) is 12300 nM; in assay [1] (miR-100 introduced), 14500 nM; in assay [1] (miR-125b introduced) it was 14100 nM; in assay [2] (MG63 cells, control (negative control nonsense RNA) introduced), 2910 nM; in assay [2] (MG63 cells, miR-100 introduced), 2570 nM; in assay [2] (MG63 cells, miR-125b introduced) it was 1630 nM. Besides, the results for the IC50 in assay [3] (setting [14]), in assay [3] (miR-100 introduced) and in assay [3] (miR-125b introduced) were 5700 nM, 6970 nM and 7320 nM, respectively.
